Experiments:
Type in all cases: functional, cell-based
PC-3 = test: Cytotoxicity against human PC3 cells assessed as reduction in cell viability after 72 hrs by MTT assay; details: PC-3, 72 h
HT-29 = test: Cytotoxicity against human HT-29 cells assessed as reduction in cell viability after 72 hrs by MTT assay; details: HT-29, 72 h
LNCaP = test: Cytotoxicity against human LNCAP cells assessed as reduction in cell viability after 72 hrs by MTT assay
MDA-MB-231 = test: Cytotoxicity against human MDA-MB-231 cells assessed as reduction in cell viability after 72 hrs by MTT assay; details: MDA-MB-231, 72 h
MCF7 = test: Cytotoxicity against human MCF7 cells assessed as reduction in cell viability after 72 hrs by MTT assay; details: MCF7, 72 h
KB/VJ300 = test: Cytotoxicity against human KB/VJ300 cells assessed as reduction in cell viability after 72 hrs by MTT assay; details: KB/VJ300, 72 h
[1] = Cytotoxicity against human KB/S cells assessed as reduction in cell viability after 72 hrs by MTT assay
HCT-116 = test: Cytotoxicity against human HCT116 cells assessed as reduction in cell viability after 72 hrs by MTT assay; details: HCT-116, 72 h
A549 = test: Cytotoxicity against human A549 cells assessed as reduction in cell viability after 72 hrs by MTT assay; details: A549, 72 h

## CC[C@]12C=CCN3CC[C@]4(C(=C(C(=O)OC)C1)Nc1cc5c(cc14)[C@@H]1[C@H](O5)[C@@H](O)[C@@]4(CC)CC(C(=O)OC)=C5Nc6c(cc(O)c(OC)c6OC)[C@@]56CCN1[C@@H]46)[C@@H]32
PC-3
  IC50: 200 nM
HT-29
  IC50: 1100 nM
LNCaP
  IC50: 900 nM
MDA-MB-231
  IC50: 900 nM
MCF7
  IC50: 600 nM
KB/VJ300
  IC50: > 10000 nM
[1]
  IC50: 1500 nM
HCT-116
  IC50: 800 nM
A549
  IC50: 10000 nM

## CC[C@@]12CC(C(=O)OC)=C3Nc4c(cc(O)c(OC)c4OC)[C@@]34CCN([C@@H]3c5cc6c(cc5O[C@@H]3[C@H]1O)NC1=C(C(=O)OC)C[C@]35CCO[C@H]3CCN3CC[C@@]16[C@@H]35)[C@@H]24
PC-3
  IC50: 1100 nM
HT-29
  IC50: 300 nM
LNCaP
  IC50: 300 nM
MDA-MB-231
  IC50: 800 nM
MCF7
  IC50: 5900 nM
KB/VJ300
  IC50: 7400 nM
[1]
  IC50: 500 nM
HCT-116
  IC50: 400 nM
A549
  IC50: > 10000 nM

## CC[C@]1(O)C[C@H]2CN(CCc3c([nH]c4ccccc34)[C@@](C(=O)OC)(c3cc4c(cc3OC)N(C=O)[C@H]3[C@@](O)(C(=O)OC)[C@H](OC(C)=O)[C@]5(CC)C=CCN6CC[C@]43[C@@H]65)C2)C1 [VINCRISTINE]
KB/VJ300
  IC50: 5900 nM
[1]
  IC50: 2 nM

From ChEMBL document CHEMBL4041503, “A Hexacyclic, Iboga-Derived Monoterpenoid Indole with a Contracted Tetrahydroazepine C-Ring and Incorporation of an Isoxazolidine Moiety, a Seco-Corynanthean, an Aspidosperma-Aspidosperma Bisindole with Anticancer Properties, and the Absolute Configuration of the Pyridopyrimidine Indole Alkaloid, …” (J Nat Prod, 2016)
